Numbers after ± are expanded uncertainties.
Experiment: mn = molality of the nth substance listed, in mol/kg
Conditions: 100 kPa, Liquid, Frequency=2 MHz, Linear variable-path acoustic interferometer

OC[C@H]1OC(O)C[C@@H](O)[C@@H]1O (stereo partly drawn) [2-deoxy-D-glucose] + O
speed of sound (288.15 K, m1 = 0.04452): 1468.5 ± 20 m/s
speed of sound (288.15 K, m1 = 0.06258): 1469.6 ± 20 m/s
speed of sound (288.15 K, m1 = 0.08916): 1471.1 ± 20 m/s
speed of sound (288.15 K, m1 = 0.09804): 1471.6 ± 20 m/s
speed of sound (288.15 K, m1 = 0.1031): 1471.9 ± 20 m/s
speed of sound (288.15 K, m1 = 0.1275): 1473.2 ± 20 m/s
speed of sound (298.15 K, m1 = 0.04452): 1499.2 ± 20 m/s
speed of sound (298.15 K, m1 = 0.06258): 1500.1 ± 20 m/s
speed of sound (298.15 K, m1 = 0.08916): 1501.4 ± 20 m/s
speed of sound (298.15 K, m1 = 0.09804): 1501.9 ± 20 m/s
speed of sound (298.15 K, m1 = 0.1031): 1502.1 ± 20 m/s
speed of sound (298.15 K, m1 = 0.1275): 1503.3 ± 20 m/s
speed of sound (308.15 K, m1 = 0.04452): 1522.1 ± 20 m/s
speed of sound (308.15 K, m1 = 0.06258): 1523 ± 20 m/s
speed of sound (308.15 K, m1 = 0.08916): 1524.3 ± 20 m/s
speed of sound (308.15 K, m1 = 0.09804): 1524.7 ± 20 m/s
speed of sound (308.15 K, m1 = 0.1031): 1524.9 ± 20 m/s
speed of sound (308.15 K, m1 = 0.1275): 1526.1 ± 20 m/s
speed of sound (318.15 K, m1 = 0.04452): 1538.2 ± 20 m/s
speed of sound (318.15 K, m1 = 0.06258): 1539 ± 20 m/s
speed of sound (318.15 K, m1 = 0.08916): 1540.1 ± 20 m/s
speed of sound (318.15 K, m1 = 0.09804): 1540.5 ± 20 m/s
speed of sound (318.15 K, m1 = 0.1031): 1540.7 ± 20 m/s
speed of sound (318.15 K, m1 = 0.1275): 1541.6 ± 20 m/s

O=C[C@H](O)[C@@H](O)[C@H](O)[C@H](O)CO [D-glucose] + O
speed of sound (288.15 K, m1 = 0.07085): 1470.8 ± 20 m/s
speed of sound (288.15 K, m1 = 0.09905): 1472.7 ± 20 m/s
speed of sound (288.15 K, m1 = 0.1196): 1474.2 ± 20 m/s
speed of sound (288.15 K, m1 = 0.1221): 1474.3 ± 20 m/s
speed of sound (288.15 K, m1 = 0.1388): 1475.5 ± 20 m/s
speed of sound (298.15 K, m1 = 0.07085): 1501.1 ± 20 m/s
speed of sound (298.15 K, m1 = 0.09905): 1502.9 ± 20 m/s
speed of sound (298.15 K, m1 = 0.1196): 1504.2 ± 20 m/s
speed of sound (298.15 K, m1 = 0.1221): 1504.3 ± 20 m/s
speed of sound (298.15 K, m1 = 0.1388): 1505.3 ± 20 m/s
speed of sound (308.15 K, m1 = 0.054): 1523.1 ± 20 m/s
speed of sound (308.15 K, m1 = 0.07085): 1524.7 ± 20 m/s
speed of sound (308.15 K, m1 = 0.09905): 1527.4 ± 20 m/s
speed of sound (308.15 K, m1 = 0.1196): 1529.3 ± 20 m/s
speed of sound (308.15 K, m1 = 0.1221): 1529.5 ± 20 m/s
speed of sound (308.15 K, m1 = 0.1388): 1531.1 ± 20 m/s
speed of sound (318.15 K, m1 = 0.07085): 1540.7 ± 20 m/s
speed of sound (318.15 K, m1 = 0.09905): 1543.2 ± 20 m/s
speed of sound (318.15 K, m1 = 0.1196): 1545 ± 20 m/s
speed of sound (318.15 K, m1 = 0.1221): 1545.2 ± 20 m/s
speed of sound (318.15 K, m1 = 0.1388): 1546.6 ± 20 m/s

OC[C@H]1O[C@H](OC[C@H]2O[C@H](O[C@]3(CO)O[C@H](CO)[C@@H](O)[C@@H]3O)[C@H](O)[C@@H](O)[C@@H]2O)[C@H](O)[C@@H](O)[C@H]1O [D-raffinose] + O
speed of sound (288.15 K, m1 = 0.05849): 1478.1 ± 20 m/s
speed of sound (288.15 K, m1 = 0.0723): 1481 ± 20 m/s
speed of sound (288.15 K, m1 = 0.087): 1484.1 ± 20 m/s
speed of sound (288.15 K, m1 = 0.1083): 1488.6 ± 20 m/s
speed of sound (288.15 K, m1 = 0.1225): 1491.6 ± 20 m/s
speed of sound (288.15 K, m1 = 0.143): 1496 ± 20 m/s
speed of sound (298.15 K, m1 = 0.05849): 1509 ± 20 m/s
speed of sound (298.15 K, m1 = 0.0723): 1512 ± 20 m/s
speed of sound (298.15 K, m1 = 0.087): 1515.1 ± 20 m/s
speed of sound (298.15 K, m1 = 0.1083): 1519.7 ± 20 m/s
speed of sound (298.15 K, m1 = 0.1225): 1522.7 ± 20 m/s
speed of sound (298.15 K, m1 = 0.143): 1527.1 ± 20 m/s
speed of sound (308.15 K, m1 = 0.05849): 1531.9 ± 20 m/s
speed of sound (308.15 K, m1 = 0.0723): 1534.8 ± 20 m/s
speed of sound (308.15 K, m1 = 0.087): 1537.9 ± 20 m/s
speed of sound (308.15 K, m1 = 0.1083): 1542.3 ± 20 m/s
speed of sound (308.15 K, m1 = 0.1225): 1545.3 ± 20 m/s
speed of sound (308.15 K, m1 = 0.143): 1549.7 ± 20 m/s
speed of sound (318.15 K, m1 = 0.05849): 1548.3 ± 20 m/s
speed of sound (318.15 K, m1 = 0.0723): 1551.1 ± 20 m/s
speed of sound (318.15 K, m1 = 0.087): 1554.1 ± 20 m/s
speed of sound (318.15 K, m1 = 0.1083): 1558.5 ± 20 m/s
speed of sound (318.15 K, m1 = 0.1225): 1561.5 ± 20 m/s
speed of sound (318.15 K, m1 = 0.143): 1565.8 ± 20 m/s

O=C[C@H](O)[C@H](O)[C@H](O)CO [D-ribose] + O
speed of sound (288.15 K, m1 = 0.04514): 1468.7 ± 20 m/s
speed of sound (288.15 K, m1 = 0.06075): 1469.7 ± 20 m/s
speed of sound (288.15 K, m1 = 0.08352): 1471.1 ± 20 m/s
speed of sound (288.15 K, m1 = 0.112): 1472.9 ± 20 m/s
speed of sound (288.15 K, m1 = 0.1348): 1474.3 ± 20 m/s
speed of sound (288.15 K, m1 = 0.1523): 1475.4 ± 20 m/s
speed of sound (298.15 K, m1 = 0.04514): 1499.1 ± 20 m/s
speed of sound (298.15 K, m1 = 0.06075): 1499.9 ± 20 m/s
speed of sound (298.15 K, m1 = 0.08352): 1501 ± 20 m/s
speed of sound (298.15 K, m1 = 0.112): 1502.5 ± 20 m/s
speed of sound (298.15 K, m1 = 0.1348): 1503.6 ± 20 m/s
speed of sound (298.15 K, m1 = 0.1523): 1504.5 ± 20 m/s
speed of sound (308.15 K, m1 = 0.04514): 1522 ± 20 m/s
speed of sound (308.15 K, m1 = 0.06075): 1522.7 ± 20 m/s
speed of sound (308.15 K, m1 = 0.08352): 1523.7 ± 20 m/s
speed of sound (308.15 K, m1 = 0.112): 1525.1 ± 20 m/s
speed of sound (308.15 K, m1 = 0.1348): 1526.1 ± 20 m/s
speed of sound (308.15 K, m1 = 0.1523): 1526.9 ± 20 m/s
speed of sound (318.15 K, m1 = 0.04514): 1538.3 ± 20 m/s
speed of sound (318.15 K, m1 = 0.06075): 1538.9 ± 20 m/s
speed of sound (318.15 K, m1 = 0.08352): 1539.9 ± 20 m/s
speed of sound (318.15 K, m1 = 0.112): 1541 ± 20 m/s
speed of sound (318.15 K, m1 = 0.1348): 1542 ± 20 m/s
speed of sound (318.15 K, m1 = 0.1523): 1542.8 ± 20 m/s
